We go through 43 compounds from PubChem BioAssay AID1996.

≈ marks a conversion by molar mass, not a printed value.

The solubility (kinetic) is the concentration staying in solution when a stock, usually in DMSO, is diluted into the medium.

The conditions of this data set: buffer; pH 7.4; 200.0 µM.
Consider `CC(=O)Nc1ccc(OCC(O)Cn2cncn2)cc1` (stereo not drawn), for which the solubility (kinetic) is more than 41.4 µg/mL.

`c1ccc(Cn2c(NCc3ccccn3)nc3ccccc32)cc1`: the kinetic solubility was more than 47.2 µg/mL.

In the case of `CN(C)C(=O)C12CCC(C)(C(=O)C1Br)C2(C)C` (stereo not drawn), the solubility (kinetic) was more than 45.3 µg/mL.

Compound `c1cncc(-c2nc3ccccc3s2)c1` gave a solubility (kinetic) of 22.7 µg/mL (≈ 107 µM).

As to `CC(=O)Nc1ccc(SCC(=O)Nc2ccc3c(c2)OCCO3)cc1`, the solubility (kinetic) is more than 53.8 µg/mL.

For the compound `C=CCOc1nc(-c2ccccc2Cl)nc2ccccc12`, the kinetic solubility is 0.7 µg/mL (≈ 2.36 µM).

Compound `COc1ccccc1NC(=S)NCc1ccccc1Cl` showed a solubility (kinetic) of 1.3 µg/mL (≈ 4.24 µM).

In turn, `CN(C)CCn1cnc2ccccc21.Cl` yielded a solubility (kinetic) of more than 39.3 µg/mL.

Take `N#C/C(=C\Nc1ccc(Cl)cn1)S(=O)(=O)c1ccccn1`: the kinetic solubility stood at 3.7 µg/mL (≈ 11.5 µM).

For `CNC(=O)CSc1nnc(-c2ccco2)n1-c1cc(C)ccc1C`, the kinetic solubility is more than 51.4 µg/mL.

In turn, `COc1ccc(/C=C(\C#N)C(=O)Nc2ccccn2)cc1` displayed a kinetic solubility of 3.5 µg/mL (≈ 12.5 µM).

`O=[N+]([O-])c1ccc(-n2cnc3ccccc32)c([N+](=O)[O-])c1` showed a kinetic solubility of more than 42.6 µg/mL.

In turn, `Nc1nc(N)c2c(n1)CCCC2` registered a kinetic solubility of 17.6 µg/mL (≈ 107 µM).

Regarding `CCc1cc(C(=O)NC(C)C2CCCO2)cs1` (stereo not drawn), the kinetic solubility was more than 38 µg/mL.

In the case of `O/N=C/c1nc2cc(Cl)ccc2o1`, the kinetic solubility was more than 29.5 µg/mL.

On to `COC(=O)CSc1nc(NC(C)(C)C)nc(N(C)C)n1`, for which the solubility (kinetic) was 38.7 µg/mL (≈ 129 µM).

Consider `O=C(Nc1ccc2c(c1)CCC2)c1ncoc1-c1ccccc1F`, for which the solubility (kinetic) is less than 0.3 µg/mL.

In the case of `O=C(CN1C(=O)NC2(CCCC2)C1=O)NCCc1ccccc1`, the solubility (kinetic) stood at 44.8 µg/mL (≈ 142 µM).

Regarding `Cc1csc(SCC(=O)N(C)C2CCS(=O)(=O)C2)n1` (stereo not drawn), the kinetic solubility is more than 48.1 µg/mL.

In turn, `CC(C)CCNC(=O)c1cc(-c2cccs2)nc2ccccc12` came in with a kinetic solubility of less than 0.3 µg/mL.

In turn, `O=C(NC(=S)NCCc1ccccc1)c1ccccc1F` returned a kinetic solubility of 0.8 µg/mL (≈ 2.65 µM).

Take `CCc1cccc(NC(=O)C2CC2c2ccccc2)c1` (stereo not drawn): the kinetic solubility is 0.7 µg/mL (≈ 2.64 µM).

In the case of `CSc1ccc(Cl)c(C(=O)OCC(=O)N(C)CCC#N)c1`, the kinetic solubility is more than 49 µg/mL.

With `O=C(CN1CCN(Cc2ccccc2)CC1)Nc1cccc(Cl)c1`, the kinetic solubility is more than 51.6 µg/mL.

Compound `Cc1cc(C(=O)NC2CCC(O)CC2)c(C)o1` (stereo not drawn) yielded a kinetic solubility of more than 35.6 µg/mL.

The compound `CCN(CC(=O)NCc1cccs1)C(=O)c1cccc(Cl)c1` registered a kinetic solubility of more than 50.5 µg/mL.

In the case of `O=C(O)C(=O)O.OC(CN1CCCC1)Cn1ccc2ccccc21` (stereo not drawn), the kinetic solubility is more than 50.2 µg/mL.

As for `CC(C)c1ccc(C2NC(=O)c3ccccc3O2)cc1` (stereo not drawn), the solubility (kinetic) came out at 1 µg/mL (≈ 3.74 µM).

As to `Cc1ccccc1N1CCN(CCC(=O)Nc2ccc(F)cc2)CC1`, the solubility (kinetic) is 39.9 µg/mL (≈ 117 µM).

The compound `Cc1ccc(CC(=O)Nc2nccs2)cc1C` showed a kinetic solubility of 3.3 µg/mL (≈ 13.4 µM).

In turn, `O=C(c1ccccc1)c1ccc(OCC(=O)N2CCOCC2)cc1` had a kinetic solubility of more than 48.8 µg/mL.

Consider `Cc1ccccc1S(=O)(=O)N1CCN(C)CC1`, for which the solubility (kinetic) was more than 38.2 µg/mL.

Turning to `CC(C)c1ccc(/C=C/C(=O)NCc2ccc(S(N)(=O)=O)cc2)cc1`, the solubility (kinetic) was 5.1 µg/mL (≈ 14.2 µM).

On to `Cc1cccc(C)c1OCCCN1CCOCC1.Cl`, for which the kinetic solubility is 35.5 µg/mL.

As to `CC(=O)c1cn(-c2ccc(Cl)cc2)c(=O)[nH]c1=O`, the solubility (kinetic) came out at 33.7 µg/mL (≈ 127 µM).

For `CCC(Oc1ccccc1F)C(=O)Nc1ccc2c(c1)n(C)c(=O)n2C` (stereo not drawn), the kinetic solubility was 49 µg/mL (≈ 137 µM).

For the compound `O=C1CCC([N+](=O)[O-])C(c2cccc([N+](=O)[O-])c2)N1` (stereo not drawn), the kinetic solubility is more than 39.8 µg/mL.

In turn, `Cc1nn(CCCC(=O)O)c(C)c1[N+](=O)[O-]` gave a kinetic solubility of more than 34.1 µg/mL.

Turning to `Cl.O=C1CCC(c2ccccc2)(C2CCN(Cc3ccccc3)CC2)C(=O)N1` (stereo not drawn), the solubility (kinetic) is 51.4 µg/mL.

Take `O=C1CCCc2c1nc(-c1ccc(F)cc1)n2O`: the kinetic solubility was more than 36.9 µg/mL.

In turn, `COc1ccc(OC)c(Nc2c3ccccc3nc3ccccc23)c1` registered a solubility (kinetic) of 12.2 µg/mL (≈ 36.9 µM).

For the compound `S=C(Nc1ccccc1)N1CCc2ccccc21`, the kinetic solubility was 23.8 µg/mL (≈ 93.6 µM).

Consider `CCOc1ccc2nc(SCC(=O)Nc3nonc3C)[nH]c2c1`, for which the kinetic solubility was 2.2 µg/mL (≈ 6.6 µM).
